Several values for one entry are separate records, joined by “and”; a condition that tells them apart may be missing. Identical values can stand only once. Inconclusive results and toxic doses are left out. The calls were made as follows: active = survival T/C of 150% or more; inactive = T/C below 125% in these data. Peptide text beside a SMILES is read from it. * marks the point of attachment. Cbz = O=C(OCc1ccccc1)*
Test system: BDF1 mice, B16 melanoma ip, median survival T/C
Experiment: NCI In Vivo Anticancer Drug Screen. Data for tumor model B16 Melanoma (intraperitoneal) in B6D2F1 (BDF1) mice
Settings: endpoint: median survival time, higher = longer survival
In short: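 Vehicle-treated animals serve as the reference (C); treated animals (T) are scored for survival or tumor size after tumor transplantation.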

[1] = dose: 50.0 mg/kg/injection, schedule: Q01DX009 (ip), vehicle: saline with Tween-80
[2] = dose: 100.0 mg/kg/injection, schedule: Q01DX009 (ip), vehicle: saline with Tween-80
[3] = dose: 12.5 mg/kg/injection, schedule: Q01DX009 (ip), vehicle: saline with Tween-80
[4] = dose: 25.0 mg/kg/injection, schedule: Q01DX009 (ip), vehicle: saline with Tween-80
[5] = dose: 6.25 mg/kg/injection, schedule: Q01DX009 (ip), vehicle: Klucel (hydroxypropylcellulose) (HPC)
[6] = dose: 12.5 mg/kg/injection, schedule: Q01DX009 (ip), vehicle: Klucel (hydroxypropylcellulose) (HPC)
[7] = dose: 25.0 mg/kg/injection, schedule: Q01DX009 (ip), vehicle: Klucel (hydroxypropylcellulose) (HPC)
[8] = dose: 50.0 mg/kg/injection, schedule: Q01DX009 (ip), vehicle: Klucel (hydroxypropylcellulose) (HPC)
[9] = dose: 100.0 mg/kg/injection, schedule: Q01DX009 (ip), vehicle: Klucel (hydroxypropylcellulose) (HPC)
[10] = dose: 200.0 mg/kg/injection, schedule: Q01DX009 (ip), vehicle: Klucel (hydroxypropylcellulose) (HPC)
[11] = dose: 100.0 mg/kg/injection, schedule: Q04DX003 (ip), vehicle: Klucel (hydroxypropylcellulose) (HPC)
[12] = dose: 400.0 mg/kg/injection, schedule: Q01DX009 (ip), vehicle: Klucel (hydroxypropylcellulose) (HPC)

Measured: T/C

CO[C@H](C)[C@@](O)(C(=O)OCC1=CCN2CCC[C@@H]12)C(C)C
inactive: dose: 10.0 mg/kg/injection, schedule: Q01DX009 (ip), vehicle: saline 114 % of control | dose: 20.0 mg/kg/injection, schedule: Q01DX009 (ip), vehicle: saline 104 % of control | dose: 40.0 mg/kg/injection, schedule: Q01DX009 (ip), vehicle: saline 100 % of control | dose: 80.0 mg/kg/injection, schedule: Q01DX009 (ip), vehicle: saline 95 % of control

NC1=NC(=O)NC1(c1ccccc1)c1ccccc1
inactive: [1] 98 % of control | [2] 109 % of control | dose: 200.0 mg/kg/injection, schedule: Q01DX009 (ip), vehicle: saline with Tween-80 97 % of control | dose: 400.0 mg/kg/injection, schedule: Q01DX009 (ip), vehicle: saline with Tween-80 93 % of control

Oc1c(Cl)c(Cl)c(Cl)c(Cl)c1Cl (tested in a mixture with another compound)
inactive: [3] 107 % of control | dose: 12.5 mg/kg/injection, schedule: Q04DX003 (ip), vehicle: saline with Tween-80 122 % of control | [4] 115 % of control | dose: 25.0 mg/kg/injection, schedule: Q04DX003 (ip), vehicle: saline with Tween-80 102 % of control | [1] 121 % of control | dose: 50.0 mg/kg/injection, schedule: Q04DX003 (ip), vehicle: saline with Tween-80 102 % of control

COc1cccc(C2CCN(C)C2)c1 (stereo unspecified)
inactive: [5] 89 % of control | [6] 100 % of control | [7] 100 % of control

O=c1oc(-c2ccco2)nc2ccccc12
inactive: [8] 112 % of control | [9] 106 % of control | [10] 112 % of control

Cc1ccc(C)c(NC(=O)Nc2cccc3ccccc23)c1
inactive: dose: 9.0 mg/kg/injection, schedule: Q01DX009 (ip), vehicle: gum acacia 108 % of control | dose: 18.0 mg/kg/injection, schedule: Q01DX009 (ip), vehicle: gum acacia 98 % of control | dose: 37.0 mg/kg/injection, schedule: Q01DX009 (ip), vehicle: gum acacia 91 % of control

COc1cc(C(=O)NCCS(=O)(=O)O)cc(OC)c1OC
inactive: dose: 100.0 mg/kg/injection, schedule: Q01DX009 (ip), vehicle: saline 97 % of control | dose: 200.0 mg/kg/injection, schedule: Q01DX009 (ip), vehicle: saline 111 % of control | dose: 400.0 mg/kg/injection, schedule: Q01DX009 (ip), vehicle: saline 103 % of control

CCCC/C=C/CCCCCCCC(=O)OCCCCCCCCCCCCCCCC
inactive: [3] 100 % of control | [4] 101 % of control | [1] 94 % of control | [2] 94 % of control

CCCCOc1ccc(OCCCCCCCCCC[N+](C)(C)C)cc1
inactive: dose: 1.56 mg/kg/injection, schedule: Q01DX009 (ip), vehicle: Klucel (hydroxypropylcellulose) (HPC) 98 % of control | dose: 3.12 mg/kg/injection, schedule: Q01DX009 (ip), vehicle: Klucel (hydroxypropylcellulose) (HPC) 96 % of control | [5] 96 % of control | [6] 93 % of control

COC(=O)CNC(=O)C(NC(=O)C1CCCN1C(=O)OCc1ccccc1)C(C)C (stereo not drawn) (Cbz-Pro-Val-Gly-OMe; configuration not given here)
inactive: [1] 91 % of control | [2] 88 % of control

Nc1nccc2c1ncn2C1OC(CO)C(O)C1O (stereo unspecified)
inactive: dose: 4.6 mg/kg/injection, schedule: Q03HX024 (ip), vehicle: saline with Tween-80 90 % of control and 109 % of control | dose: 9.3 mg/kg/injection, schedule: Q03HX024 (ip), vehicle: saline with Tween-80 94 % of control and 117 % of control | dose: 18.7 mg/kg/injection, schedule: Q03HX024 (ip), vehicle: saline with Tween-80 98 % of control | dose: 37.5 mg/kg/injection, schedule: Q03HX024 (ip), vehicle: saline with Tween-80 94 % of control

CC(=O)Nc1cc(N(CCOS(C)(=O)=O)CCOS(C)(=O)=O)ccc1N=O
inactive: dose: 75.0 micrograms/kg/injection, schedule: Q04DX003 (ip), vehicle: saline 111 % of control | dose: 100.0 micrograms/kg/injection, schedule: Q01DX009 (ip), vehicle: saline 121 % of control | dose: 150.0 micrograms/kg/injection, schedule: Q04DX003 (ip), vehicle: saline 110 % of control | dose: 300.0 micrograms/kg/injection, schedule: Q04DX003 (ip), vehicle: saline 109 % of control

CC1=C/C(O)CC(=O)Cc2nc(co2)C(=O)N2CCC=C2C(=O)OC(C(C)C)C(C)/C=C\C(=O)NC/C=C\1 (stereo unspecified)
inactive: [7] 91 % of control | [8] 102 % of control | [9] 118 % of control | [10] 123 % of control | dose: 0.5 micrograms/kg/injection, schedule: Q01DX009 (ip), vehicle: saline 103 % of control | dose: 1.0 micrograms/kg/injection, schedule: Q01DX009 (ip), vehicle: saline 102 % of control | dose: 2.0 micrograms/kg/injection, schedule: Q01DX009 (ip), vehicle: saline 107 % of control

Cc1cccc(C)c1NC(=O)Nc1ccc2c(c1)OCO2
inactive: [11] 92 % of control

CCOC(=O)Nc1cccc2ccccc12
inactive: [11] 102 % of control | dose: 200.0 mg/kg/injection, schedule: Q04DX003 (ip), vehicle: Klucel (hydroxypropylcellulose) (HPC) 105 % of control | dose: 400.0 mg/kg/injection, schedule: Q04DX003 (ip), vehicle: Klucel (hydroxypropylcellulose) (HPC) 102 % of control

CC1(C)Oc2c(ccc(O)c2CN2CCOCC2)C2=C1CCCC2
inactive: dose: 64.0 mg/kg/injection, schedule: Q01DX009 (ip), vehicle: Klucel (hydroxypropylcellulose) (HPC) 96 % of control | dose: 128.0 mg/kg/injection, schedule: Q01DX009 (ip), vehicle: Klucel (hydroxypropylcellulose) (HPC) 96 % of control | dose: 256.0 mg/kg/injection, schedule: Q01DX009 (ip), vehicle: Klucel (hydroxypropylcellulose) (HPC) 101 % of control

Clc1ccc(Br)c(Cl)c1
inactive: [9] 93 % of control | [10] 93 % of control | [12] 93 % of control

COc1cccc2c1C(=O)c1c(O)c3c(c(O)c1C2=O)C[C@@](O)(C(C)=O)C[C@@H]3OC1CC(N(C)C)C(O)C(C)O1 (stereo partly specified)
inactive: dose: 0.63 mg/kg/injection, schedule: Q01DX001 (ip), vehicle: water 100 % of control | dose: 1.25 mg/kg/injection, schedule: Q01DX001 (ip), vehicle: water 110 % of control and 112 % of control | dose: 2.5 mg/kg/injection, schedule: Q01DX001 (ip), vehicle: water 104 % of control | dose: 3.46 mg/kg/injection, schedule: Q04DX003 (ip), vehicle: water 98 % of control and 122 % of control | dose: 5.76 mg/kg/injection, schedule: Q04DX003 (ip), vehicle: water 106 % of control and 117 % of control | dose: 7.2 mg/kg/injection, schedule: Q01DX001 (ip), vehicle: water 104 % of control and 116 % of control | dose: 9.6 mg/kg/injection, schedule: Q04DX003 (ip), vehicle: water 102 % of control | dose: 12.0 mg/kg/injection, schedule: Q01DX001 (ip), vehicle: water 106 % of control and 121 % of control

Cc1nc(SCc2ccc(Cl)cc2)[nH]c(=O)c1CCO
inactive: dose: 100.0 mg/kg/injection, schedule: Q04DX003 (ip), vehicle: saline with Tween-80 100 % of control | dose: 200.0 mg/kg/injection, schedule: Q04DX003 (ip), vehicle: saline with Tween-80 102 % of control | dose: 400.0 mg/kg/injection, schedule: Q04DX003 (ip), vehicle: saline with Tween-80 92 % of control

CN(C)c1ccc(C=C2c3ccccc3-c3ccccc32)cc1
inactive: [9] 106 % of control | [10] 103 % of control | [12] 106 % of control

Clc1ccc2c(c1)/C(=C\c1ccnc3ccccc13)c1cc(Cl)cc(Cl)c1-2
inactive: dose: 6.25 mg/kg/injection, schedule: Q01DX009 (ip), vehicle: saline with Tween-80 93 % of control
